Patent US6653300B2, “Pyrazole compounds useful as protein kinase inhibitors” (Vertex Pharmaceuticals Incorporated, priority 2000, dated 2003)

What was measured:
GSK-3β (AA 1-420) = molecular target: T1, GSK-3β (AA 1-420) (Homo sapiens, UniProt P49841); assay: Ki determination for the inhibition of GSK-3 (coupled enzyme system); format: biochemical; conditions: 20 μM ATP, 20 nM GSK-3β, 30° C.
T1 construct: GSK-3β (AA 1-420)
In short: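 GSK-3β (AA 1-420, 20 nM) was run in a pyruvate kinase/LDH-coupled NADH assay in 100 mM HEPES pH 7.5, 10 mM MgCl2, 25 mM NaCl, 1 mM DTT, 1.5% DMSO, with 300 μM phosphopeptide substrate. Compound (0.002–30 μM) was preincubated 10 min at 30° C, then 20 μM ATP was added.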

CDK-2/Cyclin A = CDK-2/Cyclin A (Homo sapiens, UniProt P24941); assay: CDK-2 inhibition assay (coupled enzyme assay); format: biochemical; conditions: 25 nM CDK-2/Cyclin A, 30° C.
Procedure: Compounds were screened in the following manner for their ability to inhibit CDK-2 using a standard coupled enzyme assay (Fox et al (1998) Protein Sci 7, 2249).
To an assay stock buffer solution containing 0.1M HEPES 7.5, 10 mM MgCl2, 1 mM DTT, 25 mM NaCl, 2.5 mM phosphoenolpyruvate, […], 30 mg/ml pyruvate kinase, 10 mg/ml lactate dehydrogenase, 100 mM ATP, and 100 μM peptide ([…], American Peptide, Sunnyvale, Calif.) was added a DMSO solution of a compound of the present invention to a final concentration of 30 μM. The resulting mixture was incubated at 30° C. for 10 min.
The reaction was initiated by the addition of 10 μL of CDK-2/Cyclin A stock solution to give a final concentration of 25 nM in the assay. The rates of reaction were obtained by monitoring absorbance at 340 nm over a 5-minute read time at 30° C. using a BioRad Ultramark plate reader (Hercules, Calif.). The Ki values were determined from the rate data as a function of inhibitor concentration.

AKT-3 = AKT-3 (Homo sapiens, UniProt Q9Y243); assay: AKT inhibition assay (coupled enzyme assay); format: biochemical; conditions: 45 nM AKT, 170 μM ATP, 30° C.
Procedure: Compounds were screened for their ability to inhibit AKT using a standard coupled enzyme assay (Fox et al., Protein Sci., (1998) 7, 2249). Assays were carried out in a mixture of 100 mM HEPES 7.5, 10 mM MgCl2, 25 mM NaCl, 1 mM DTT and 1.5% DMSO. Final substrate concentrations in the assay were 170 μM ATP (Sigma Chemicals) and 200 μM peptide (RPRAATF, American Peptide, Sunnyvale, Calif.). Assays were carried out at 30° C. and 45 nM AKT. Final concentrations of the components of the coupled enzyme system were 2.5 mM phosphoenolpyruvate, 300 μM NADH, 30 μg/ML pyruvate kinase and 10 μg/ml lactate dehydrogenase.
An assay stock buffer solution was prepared containing all of the reagents listed above, with the exception of AKT, DTT, and the test compound of interest. 56 μl of the stock solution was placed in a 384 well plate followed by addition of 1 μl of 2 mM DMSO stock containing the test compound (final compound concentration 30 μM). The plate was preincubated for about 10 minutes at 30° C. and the reaction initiated by addition of 10 μl of enzyme (final concentration 45 nM) and 1 mM DTT. Rates of reaction were obtained using a BioRad Ultramark plate reader (Hercules, Calif.) over a 5 minute read time at 30° C.

activated ERK2 = activated ERK2 (Homo sapiens, UniProt P28482); assay: ERK inhibition assay (spectrophotometric coupled-enzyme assay); format: biochemical; conditions: 10 nM activated ERK2, 65 μM ATP, 30° C.; read-out: Ki values for ERK-2
Procedure: Compounds were assayed for the inhibition of ERK2 by a spectrophotometric coupled-enzyme assay (Fox et al (1998) Protein Sci 7, 2249).

Aurora-2 = molecular target: T2, Aurora-2 (Homo sapiens, UniProt O14965); assay: Ki determination for the inhibition of Aurora-2 (coupled enzyme assay); format: biochemical; conditions: 70 nM Aurora-2, 30° C.
T2 sequence (O14965 1-403): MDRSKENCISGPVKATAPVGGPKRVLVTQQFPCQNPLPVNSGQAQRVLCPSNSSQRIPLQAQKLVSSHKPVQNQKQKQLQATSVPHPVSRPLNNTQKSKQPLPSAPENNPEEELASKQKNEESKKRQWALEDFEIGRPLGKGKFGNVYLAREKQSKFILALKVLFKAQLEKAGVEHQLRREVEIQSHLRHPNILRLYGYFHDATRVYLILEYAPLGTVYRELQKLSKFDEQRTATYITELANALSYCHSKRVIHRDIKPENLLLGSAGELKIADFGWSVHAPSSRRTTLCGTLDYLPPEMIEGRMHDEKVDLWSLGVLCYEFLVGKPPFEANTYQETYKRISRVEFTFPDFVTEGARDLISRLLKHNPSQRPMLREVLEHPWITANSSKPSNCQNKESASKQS
In short: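 Ki came from reaction rates plotted against inhibitor concentration, with rates taken as A340 decrease over 5 min at 30° C. Enzyme (70 nM final) was added after 10 min compound preincubation; stock buffer held […], 800 μM LRRASLG, PK/LDH coupling, pH 7.5.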

T1 sequence (P49841 whole entry, the tested form may be a part): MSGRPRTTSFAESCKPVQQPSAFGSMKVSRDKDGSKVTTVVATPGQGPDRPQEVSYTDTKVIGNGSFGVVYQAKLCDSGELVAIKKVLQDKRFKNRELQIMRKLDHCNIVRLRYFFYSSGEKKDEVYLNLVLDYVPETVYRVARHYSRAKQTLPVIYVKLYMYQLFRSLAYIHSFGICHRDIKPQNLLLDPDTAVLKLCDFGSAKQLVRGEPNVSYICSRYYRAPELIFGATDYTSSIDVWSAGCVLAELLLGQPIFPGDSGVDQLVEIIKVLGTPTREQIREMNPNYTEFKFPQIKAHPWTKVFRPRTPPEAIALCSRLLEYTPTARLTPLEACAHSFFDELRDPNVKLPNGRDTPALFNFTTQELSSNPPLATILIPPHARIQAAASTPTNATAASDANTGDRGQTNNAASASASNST
activated ERK2, sequence (P28482 whole entry): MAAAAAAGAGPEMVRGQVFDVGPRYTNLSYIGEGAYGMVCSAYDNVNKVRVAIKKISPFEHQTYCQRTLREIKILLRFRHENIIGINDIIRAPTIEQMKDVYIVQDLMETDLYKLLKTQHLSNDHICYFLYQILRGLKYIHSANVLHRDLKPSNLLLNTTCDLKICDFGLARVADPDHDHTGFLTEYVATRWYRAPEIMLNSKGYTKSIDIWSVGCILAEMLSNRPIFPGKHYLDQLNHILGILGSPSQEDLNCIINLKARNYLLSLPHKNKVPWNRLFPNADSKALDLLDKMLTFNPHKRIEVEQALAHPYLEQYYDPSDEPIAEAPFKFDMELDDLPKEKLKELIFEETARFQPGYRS
AKT-3, sequence (Q9Y243 whole entry, species assumed): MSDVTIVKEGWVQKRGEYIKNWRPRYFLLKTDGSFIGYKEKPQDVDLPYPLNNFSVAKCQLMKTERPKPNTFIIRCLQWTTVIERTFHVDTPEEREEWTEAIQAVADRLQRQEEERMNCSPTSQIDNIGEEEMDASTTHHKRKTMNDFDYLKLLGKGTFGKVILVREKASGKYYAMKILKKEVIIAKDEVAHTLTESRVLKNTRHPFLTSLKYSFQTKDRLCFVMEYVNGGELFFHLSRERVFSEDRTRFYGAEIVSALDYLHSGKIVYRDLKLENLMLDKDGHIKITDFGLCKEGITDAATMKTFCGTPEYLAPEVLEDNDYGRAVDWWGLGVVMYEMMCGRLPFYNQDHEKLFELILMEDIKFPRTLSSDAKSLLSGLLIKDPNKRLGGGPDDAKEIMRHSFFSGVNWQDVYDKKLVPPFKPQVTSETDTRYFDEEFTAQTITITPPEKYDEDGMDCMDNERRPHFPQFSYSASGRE

c1ccc2c(Nc3cc(C4CC4)[nH]n3)nc(Nc3ccc4ncsc4c3)nc2c1 [IIc-32, [2-(Benzothiazol-6-ylamino)-quinazolin-4-yl]-(5-cyclopropyl-2H-pyrazol-3-yl)-amine]
Ki (GSK-3β (AA 1-420)): < 100 nM
Ki (CDK-2/Cyclin A): < 1000 nM
Ki (AKT-3): 1000 to 20000 nM
melting point: 255 to 256 °C
Ki (activated ERK2): < 1000 nM
Ki (Aurora-2): < 100 nM
